Drawing on US8912188B2, “Substituted quinoxaline carboxylic acids for the inhibition of PASK” (BioEnergenix, LLC, priority 2011, dated 2014), this text covers IC50 for 32 compounds.

For one test, the target named is T1, PASK (UniProt #Q96RG2; human recombinant N-terminal GST tagged construct, residues 879-1323) (Homo sapiens, UniProt Q96RG2).
T1 construct: human recombinant N-terminal GST tagged construct, residues 879-1323; GST (N); host or cells: insect cells
Put plainly: PASK ATP Radiochemical Assay. Format: biochemical. The settings on record: 33P-ATP, Myelin Basic Protein substrate, 120 min at room temperature, read-out: IC50 Kinase Domain. On the procedure:
Biochemical Assay for hPASK Activity
PASK ATP Radiochemical Assay
Test compounds in DMSO are then added and the mixture, followed by delivery of ^33P-ATP (specific activity 0.01 μCi/μl final) to initiate the reaction. […] The entire reaction mixture is washed through onto a P81 Phosphocellulose paper and washed three times for 10 minutes in 75 mM phosphoric acid and once in methanol prior to drying and scintillation counting.

For a further test, the target named is T2, PASK (Invitrogen) (Homo sapiens, UniProt Q96RG2).
T2 construct: IC50 Kinase Domain; purchased Invitrogen
T2 sequence (Q96RG2 999-1251 limits assumed): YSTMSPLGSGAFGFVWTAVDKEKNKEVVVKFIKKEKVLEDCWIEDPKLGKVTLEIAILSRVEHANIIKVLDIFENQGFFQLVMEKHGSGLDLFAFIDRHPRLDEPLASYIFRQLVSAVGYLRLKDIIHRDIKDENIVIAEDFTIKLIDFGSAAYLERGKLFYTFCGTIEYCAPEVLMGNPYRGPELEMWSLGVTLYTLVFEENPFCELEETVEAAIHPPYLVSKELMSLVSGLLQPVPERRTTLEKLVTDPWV
In words: PAS Kinase FRET Assay. To be noted: PAS kinase TR-FRET assay (665 nm/615 nm), 2 hours at 25° C.; read-out: IC50 Kinase Domain. It counts as biochemical.

Each structure is given as a SMILES string.

T1 sequence (Q96RG2 879-1323, stated change not applied): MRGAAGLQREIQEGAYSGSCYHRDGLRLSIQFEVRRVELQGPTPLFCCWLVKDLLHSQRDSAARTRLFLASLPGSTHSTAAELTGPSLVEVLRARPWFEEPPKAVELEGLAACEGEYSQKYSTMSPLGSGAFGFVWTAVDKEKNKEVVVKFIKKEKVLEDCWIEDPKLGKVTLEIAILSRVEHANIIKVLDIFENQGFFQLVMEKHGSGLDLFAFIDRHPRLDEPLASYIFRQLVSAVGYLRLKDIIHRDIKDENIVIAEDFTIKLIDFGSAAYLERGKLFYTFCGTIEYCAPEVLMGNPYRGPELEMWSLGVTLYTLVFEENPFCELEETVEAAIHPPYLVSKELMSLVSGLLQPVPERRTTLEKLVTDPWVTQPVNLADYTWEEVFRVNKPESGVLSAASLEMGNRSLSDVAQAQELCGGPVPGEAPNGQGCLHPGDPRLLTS

Turning to `CC(C)N(C)c1nc2cc(C(=O)O)ccc2nc1-c1cc[nH]c1` [Example 81, 3-[Methyl(propan-2-yl)amino]-2-(1H-pyrrol-3-yl)quinoxaline-6-carboxylic acid], the IC50 on PASK and on PASK (Invitrogen) was below 10 µM in each case.

`CC[C@H](C)N(C)c1nc2cc(C(=O)O)ccc2nc1-c1ccc(F)cc1` [Example 104, (S)-3-(sec-Butyl(methyl)amino)-2-(4-fluorophenyl)quinoxaline-6-carboxylic acid]: the IC50 at PASK and on PASK (Invitrogen) was below 10 µM in each case.

For `CCN(c1nc2cc(C(=O)O)ccc2nc1-c1ccc(F)cc1)C(C)C` [Example 111, 3-(Ethyl(isopropyl)amino)-2-(4-fluorophenyl)quinoxaline-6-carboxylic acid], the IC50 on PASK and on PASK (Invitrogen) was below 10 µM in each case.

`CC[C@H](C)N(C)c1nc2cc(C(=O)O)ccc2nc1-c1cc2cc(F)ccc2o1` [Example 69, (S)-3-(sec-Butyl(methyl)amino)-2-(5-fluorobenzofuran-2-yl)quinoxaline-6-carboxylic acid]: the half-maximal inhibitory concentration (IC50) at PASK and on PASK (Invitrogen) was below 10 µM each time.

As to `O=C(O)c1ccc2nc(-c3ccc4c(c3)OC(F)(F)O4)c(N3CCCCCC3)nc2c1` [Example 51, 3-(Azepan-1-yl)-2-(2,2-difluoro-2H-1,3-benzodioxol-5-yl)quinoxaline-6-carboxylic acid], the IC50 on PASK and at PASK (Invitrogen) was below 10 µM each time.

Turning to `CCCN(CCC)c1nc2cc(C(=O)O)ccc2nc1-c1ccc(F)cc1` [Example 140, 3-(Dipropylamino)-2-(4-fluorophenyl)quinoxaline-6-carboxylic acid], the IC50 on PASK and on PASK (Invitrogen) was below 10 µM in each case.

On to `Cc1cc2cc(-c3nc4ccc(C(=O)O)cc4nc3N(C)C(C)C)ccc2[nH]1` [Example 76, 3-[Methyl(propan-2-yl)amino]-2-(2-methyl-M-indol-5-yl)quinoxaline-6-carboxylic acid], for which the concentration for half-maximal inhibition (IC50) on PASK and on PASK (Invitrogen) was below 10 µM in each case.

Take `CN(c1nc2cc(C(=O)O)ccc2nc1-c1cc2cc(F)ccc2o1)C1CC1` [Example 61, 3-[Cyclopropyl(methyl)amino]-2-(5-fluoro-1-benzofuran-2-yl)quinoxaline-6-carboxylic acid]: the concentration for half-maximal inhibition (IC50) on PASK and on PASK (Invitrogen) was below 10 µM each time.

For the compound `CC(C)N(C)c1nc2cc(C(=O)O)ccc2nc1-c1cc2ccccc2s1` [Example 23, 2-(Benzo[b]thiophen-2-yl)-3-(isopropyl(methyl)amino)quinoxaline-6-carboxylic acid], the half-inhibitory concentration (IC50) on PASK and at PASK (Invitrogen) was below 10 µM in each case.

With `CC(C)N(C)c1nc2cc(C(=O)O)ccc2nc1-c1ccc(-c2ccccc2)o1` [Example 77, 3-[Methyl(propan-2-yl)amino]-2-(5-phenylfuran-2-yl)quinoxaline-6-carboxylic acid], the 50% inhibitory concentration (IC50) on PASK and at PASK (Invitrogen) was below 10 µM throughout.

Regarding `Cc1n[nH]c2ccc(-c3nc4ccc(C(=O)O)cc4nc3N(C)C(C)C)cc12` [Example 44, 2-(3-Methyl-M-indazol-5-yl)-3-(isopropyl(methyl)amino)quinoxaline-6-carboxylic acid], the half-maximal inhibitory concentration (IC50) on PASK and on PASK (Invitrogen) was below 10 µM in each case.

Turning to `C[C@H]1CCCN1c1nc2cc(C(=O)O)ccc2nc1-c1cc2cc(F)ccc2s1` [Example 55, (S)-2-(5-Fluorobenzo[b]thiophen-2-yl)-3-(2-methylpyrrolidin-1-yl)quinoxaline-6-carboxylic acid], the IC50 at PASK and at PASK (Invitrogen) was below 10 µM in each case.

With `CC(C)N(C)c1nc2cc(C(=O)O)ccc2nc1-c1cc2cc(Cl)ccc2o1` [Example 19, 2-(5-Chlorobenzofuran-2-yl)-3-(isopropyl(methyl)amino)quinoxaline-6-carboxylic acid], the half-inhibitory concentration (IC50) at PASK and on PASK (Invitrogen) was below 10 µM throughout.

For the compound `C[C@H]1CCCCN1c1nc2cc(C(=O)O)ccc2nc1-c1ccc2[nH]ccc2c1` [Example 73, (S)-2-(1H-Indol-5-yl)-3-(2-methylpiperidin-1-yl)quinoxaline-6-carboxylic acid], the concentration for half-maximal inhibition (IC50) at PASK and at PASK (Invitrogen) was below 10 µM in each case.

On to `C[C@H]1CCCN1c1nc2cc(C(=O)O)c(O)cc2nc1-c1ccc2[nH]ncc2c1` [Example 93, (S)-7-Hydroxy-2-(1H-indazol-5-yl)-3-(2-methylpyrrolidin-1-yl)quinoxaline-6-carboxylic acid], for which the IC50 at PASK and on PASK (Invitrogen) was below 10 µM in each case.

For `Cc1cc2cc(-c3nc4ccc(C(=O)O)cc4nc3N(C)C3CC3)ccc2[nH]1` [Example 89, 3-[Cyclopropyl(methyl)amino]-2-(2-methyl-1H-indol-5-yl)quinoxaline-6-carboxylic acid], the IC50 at PASK and at PASK (Invitrogen) was below 10 µM each time.

For the compound `C[C@@H]1CCCN1c1nc2cc(C(=O)O)ccc2nc1-c1ccc2c(c1)OCO2` [Example 87, (R)-2-(Benzo[d][1,3]dioxol-5-yl)-3-(2-methylpyrrolidin-1-yl)quinoxaline-6-carboxylic acid], the IC50 at PASK and at PASK (Invitrogen) was below 10 µM each time.

As for `Cc1cc2cc(-c3nc4ccc(C(=O)O)cc4nc3N3CCC[C@@H]3C)ccc2[nH]1` [Example 75, 2-(2-Methyl-1H-indol-5-yl)-3-[(2S)-2-methylpyrrolidin-1-yl]quinoxaline-6-carboxylic acid], the IC50 on PASK and at PASK (Invitrogen) was below 10 µM throughout.

Regarding `CN(c1nc2cc(C(=O)O)ccc2nc1-c1ccc(F)cc1)C(C)(C)C` [Example 107, 3-(tert-Butyl(methyl)amino)-2-(4-fluorophenyl)quinoxaline-6-carboxylic acid], the 50% inhibitory concentration (IC50) on PASK and on PASK (Invitrogen) was below 10 µM each time.

Take `Cc1c[nH]c2ccc(-c3nc4ccc(C(=O)O)cc4nc3N(C)C(C)C)cc12` [Example 86, 3-(Isopropyl(methyl)amino)-2-(3-methyl-1H-indol-5-yl)quinoxaline-6-carboxylic acid]: the IC50 at PASK and at PASK (Invitrogen) was below 10 µM each time.

Take `C[C@@H]1CCCCN1c1nc2cc(C(=O)O)ccc2nc1-c1ccc(F)cc1` [Example 121, (R)-2-(4-Fluorophenyl)-3-(2-methylpiperidin-1-yl)quinoxaline-6-carboxylic acid]: the IC50 on PASK and at PASK (Invitrogen) was below 10 µM each time.

In the case of `C[C@H]1CCCN1c1nc2cc(C(=O)O)ccc2nc1-c1ccc2scnc2c1` [Example 57, 2-(1,3-Benzothiazol-5-yl)-3-[(2S)-2-methylpyrrolidin-1-yl]quinoxaline-6-carboxylic acid], the 50% inhibitory concentration (IC50) at PASK and at PASK (Invitrogen) was below 10 µM in each case.

As to `CN(c1nc2cc(C(=O)O)ccc2nc1-c1ccc(F)cc1)C1CCC1` [Example 146, 3-(Cyclobutyl(methyl)amino)-2-(4-fluorophenyl)quinoxaline-6-carboxylic acid], the IC50 at PASK and at PASK (Invitrogen) was below 10 µM each time.

On to `O=C(O)c1ccc2nc(-c3ccc(F)cc3)c(N3CCCC[C@@H]3C(F)(F)F)nc2c1` [Example 106, 2-(4-Fluorophenyl)-3-[(2R)-2-(trifluoromethyl)piperidin-1-yl]quinoxaline-6-carboxylic acid], for which the half-maximal inhibitory concentration (IC50) at PASK and at PASK (Invitrogen) was below 10 µM each time.

For `CCN(CC)c1nc2cc(C(=O)O)ccc2nc1-c1ccc(F)cc1` [Example 113, 3-(Diethylamino)-2-(4-fluorophenyl)quinoxaline-6-carboxylic acid], the half-maximal inhibitory concentration (IC50) at PASK and on PASK (Invitrogen) was below 10 µM throughout.

For `COC[C@H]1CCCN1c1nc2cc(C(=O)O)ccc2nc1-c1cc2cc(F)ccc2o1` [Example 68, 2-(5-Fluoro-1-benzofuran-2-yl)-3-[(2R)-2-(methoxymethyl)pyrrolidin-1-yl]quinoxaline-6-carboxylic acid], the IC50 at PASK and on PASK (Invitrogen) was below 10 µM throughout.

For `CCN(c1nc2cc(C(=O)O)ccc2nc1-c1ccc(F)cc1)C1CCCCC1` [Example 112, 3-[Cyclohexyl(ethyl)amino]-2-(4-fluorophenyl)quinoxaline-6-carboxylic acid], the IC50 at PASK and at PASK (Invitrogen) was below 10 µM in each case.

Consider `C[C@H]1COCCN1c1nc2cc(C(=O)O)ccc2nc1-c1ccc2[nH]ccc2c1` [Example 66, (S)-2-(1H-Indol-5-yl)-3-(3-methylmorpholino)quinoxaline-6-carboxylic acid], for which the IC50 on PASK and on PASK (Invitrogen) was below 10 µM each time.

Take `CC(C)N(C)c1nc2cc(C(=O)O)ccc2nc1-n1cnc2ccccc21` [Example 63, 2-(1H-Benzo[d]imidazol-1-yl)-3-(isopropyl(methyl)amino)quinoxaline-6-carboxylic acid]: the IC50 at PASK and on PASK (Invitrogen) was below 10 µM throughout.

Consider `CN(c1nc2cc(C(=O)O)ccc2nc1-c1ccc(F)cc1)C1CCCC1` [Example 135, 3-(Cyclopentyl(methyl)amino)-2-(4-fluorophenyl)quinoxaline-6-carboxylic acid], for which the IC50 at PASK and on PASK (Invitrogen) was below 10 µM throughout.

In the case of `CC(C)N(C)c1nc2cc(C(=O)O)ccc2nc1-c1ccc2c(c1)CCCO2` [Example 21, 2-(Chroman-6-yl)-3-(isopropyl(methyl)amino)quinoxaline-6-carboxylic acid], the IC50 at PASK and at PASK (Invitrogen) was below 10 µM each time.

`Cc1cc2cc(-c3nc4ccc(C(=O)O)cc4nc3N3CCCC[C@@H]3C)ccc2[nH]1` [Example 88, (S)-2-(2-Methyl-1H-indol-5-yl)-3-(2-methylpiperidin-1-yl)quinoxaline-6-carboxylic acid]: the IC50 at PASK and on PASK (Invitrogen) was below 10 µM each time.
